Results: ChEMBL document CHEMBL1201862, “PubChem BioAssay data set” (2004)
Calls of active or inactive are those of the source.

Legend:
[1] = target: 5-hydroxytryptamine receptor 5A (Homo sapiens, UniProt P47898); assay: Counterscreen for agonists of OPRM1-OPRD1 heterodimerization: luminescence-based cell-based high throughput dose response assay to identify agonists of 5-hydroxytryptamine (serotonin) 5A receptor (HTR5A). [Related pubchem assays (depositor defined):AID504326, AID504355, AID504692, AID504904, AID504905]; assay type: functional
[2] = target: Delta-type opioid receptor (Homo sapiens, UniProt P41143); assay: Counterscreen for agonists of heterodimerization of the mu 1 (OPRM1) and delta 1 (OPRD1) opioid receptors: Luminescence-based cell-based high throughput dose response assay to identify agonists of OPRD1 homodimerization. [Related pubchem assays (depositor defined):AID504326, AID504355, AID504692, AID504904, AID504905]; assay type: functional
Mu-type opioid receptor = Mu-type opioid receptor (Homo sapiens, UniProt P35372); assay: Counterscreen for agonists of heterodimerization of the mu 1 (OPRM1) and delta 1 (OPRD1) opioid receptors: Luminescence-based cell-based high throughput dose response assay to identify agonists of OPRM1 homodimerization.; assay type: functional;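 further: U2OS cells expressing OPRM1 and beta-arrestin as split beta-galactosidase partners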
[3] = target: T1, Short transient receptor potential channel 4 (Mus musculus, UniProt Q9QUQ5); assay: block of DAMGO-driven TRPC4 calcium entry – cell-based, HEK293 TRPC4/mu-opioid, Fluo-4 calcium, dose response (AID 434942); assay type: functional;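 further: potency of inhibitors blocking the TRPC4 calcium response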
T1 sequence (Q9QUQ5 whole entry): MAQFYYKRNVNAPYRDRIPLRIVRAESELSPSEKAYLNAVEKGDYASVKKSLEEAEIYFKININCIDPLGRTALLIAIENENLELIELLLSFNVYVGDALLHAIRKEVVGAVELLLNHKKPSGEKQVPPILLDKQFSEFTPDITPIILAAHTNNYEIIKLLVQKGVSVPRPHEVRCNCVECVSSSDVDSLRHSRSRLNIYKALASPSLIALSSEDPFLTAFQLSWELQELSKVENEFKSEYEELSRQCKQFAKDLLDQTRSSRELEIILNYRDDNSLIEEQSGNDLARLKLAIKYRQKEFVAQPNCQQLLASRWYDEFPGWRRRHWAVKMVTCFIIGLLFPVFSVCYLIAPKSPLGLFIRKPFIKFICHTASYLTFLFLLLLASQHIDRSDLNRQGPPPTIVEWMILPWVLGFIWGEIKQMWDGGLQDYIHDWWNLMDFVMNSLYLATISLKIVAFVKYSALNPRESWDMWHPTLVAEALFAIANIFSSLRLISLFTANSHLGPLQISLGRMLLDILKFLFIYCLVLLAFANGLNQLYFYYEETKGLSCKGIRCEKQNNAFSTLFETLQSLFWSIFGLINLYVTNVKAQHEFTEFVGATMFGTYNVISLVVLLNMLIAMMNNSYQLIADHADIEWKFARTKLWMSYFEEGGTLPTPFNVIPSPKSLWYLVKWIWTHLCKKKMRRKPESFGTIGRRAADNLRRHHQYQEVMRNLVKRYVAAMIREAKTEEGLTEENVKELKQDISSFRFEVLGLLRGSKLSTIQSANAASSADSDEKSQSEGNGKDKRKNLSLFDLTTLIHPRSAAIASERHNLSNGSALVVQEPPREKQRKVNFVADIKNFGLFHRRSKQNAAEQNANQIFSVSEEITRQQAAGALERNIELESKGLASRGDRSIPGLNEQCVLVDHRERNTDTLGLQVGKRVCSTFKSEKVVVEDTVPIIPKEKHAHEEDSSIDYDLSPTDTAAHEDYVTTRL

HEK293 [4] = assay: inhibition of NOD1-driven NF-kB reporter – cell-based, luminescence, uHTS, primary screen (AID 1578); assay type: functional; conditions: Homo sapiens
HEK293 [5] = assay: NOD2 signaling inhibitors in MDP-stimulated cells, cell-based, uHTS, luminescence (AID 2001); assay type: functional; conditions: Homo sapiens
HEK293 [6] = assay: cells; assay type: functional, cell-based; conditions: Homo sapiens
HEK293 [7] = assay: cells; assay type: functional, cell-based; conditions: Homo sapiens; remark: listed apart in the source
HEK293 [8] = assay: cells; assay type: functional, cell-based; conditions: Homo sapiens; remark: listed apart in the source
[9] = target: Nucleotide-binding oligomerization domain-containing protein 2 (Homo sapiens, UniProt Q9HC29); assay: inhibition of NOD2-driven NF-kB reporter – cell-based, luminescence, uHTS, HEK293 (AID 1566); assay type: functional
[10] = target: Dual specificity protein kinase CLK1 (Homo sapiens, UniProt P49759); assay: inhibition of human CLK1 activity – biochemical, cherry-picked samples, selectivity assay for Dyrk1A inhibitor project, dose response (AID 588811)
Hexokinase HKDC1 = target: T2, Hexokinase HKDC1 (Homo sapiens, UniProt Q2TB90); assay: SAR analysis of small molecule inhibitors of hexokinase domain containing I (HKDC1). [Related pubchem assays (depositor defined):AID493160, AID493190]; assay type: functional
T2 sequence (Q2TB90 whole entry): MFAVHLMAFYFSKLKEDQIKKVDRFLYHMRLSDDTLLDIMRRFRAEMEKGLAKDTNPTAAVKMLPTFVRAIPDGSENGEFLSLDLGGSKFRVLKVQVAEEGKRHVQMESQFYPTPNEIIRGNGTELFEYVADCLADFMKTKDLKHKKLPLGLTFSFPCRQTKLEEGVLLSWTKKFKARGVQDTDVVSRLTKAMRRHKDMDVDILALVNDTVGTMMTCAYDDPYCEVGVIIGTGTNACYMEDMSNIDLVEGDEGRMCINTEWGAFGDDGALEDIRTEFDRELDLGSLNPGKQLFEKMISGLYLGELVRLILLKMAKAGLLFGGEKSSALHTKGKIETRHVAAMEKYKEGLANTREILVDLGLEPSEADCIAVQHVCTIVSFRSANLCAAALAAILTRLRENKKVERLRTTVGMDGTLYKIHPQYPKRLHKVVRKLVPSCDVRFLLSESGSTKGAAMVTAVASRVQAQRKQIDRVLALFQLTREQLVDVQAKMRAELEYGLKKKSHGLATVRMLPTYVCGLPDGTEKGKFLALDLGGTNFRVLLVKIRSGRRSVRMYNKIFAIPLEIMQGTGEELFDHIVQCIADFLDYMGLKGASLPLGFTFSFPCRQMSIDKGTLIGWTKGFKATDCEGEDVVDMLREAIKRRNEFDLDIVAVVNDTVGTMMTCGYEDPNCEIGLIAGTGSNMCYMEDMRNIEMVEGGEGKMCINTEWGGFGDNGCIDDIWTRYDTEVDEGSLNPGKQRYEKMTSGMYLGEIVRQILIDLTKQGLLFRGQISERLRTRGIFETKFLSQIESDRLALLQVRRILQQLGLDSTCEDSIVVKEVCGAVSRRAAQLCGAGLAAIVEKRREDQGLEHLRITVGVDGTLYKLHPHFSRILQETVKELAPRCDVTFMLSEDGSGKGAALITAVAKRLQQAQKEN

Hexokinase-1 = Hexokinase-1 (Homo sapiens, UniProt P19367); assay: SAR analysis of small molecule inhibitors of hexokinase domain containing I (HKDC1) in the hexokinase 1 selectivity assay. [Related pubchem assays (depositor defined):AID493160, AID493190]; assay type: functional
Hexokinase-1, sequence (P19367 whole entry, the tested form may be a part): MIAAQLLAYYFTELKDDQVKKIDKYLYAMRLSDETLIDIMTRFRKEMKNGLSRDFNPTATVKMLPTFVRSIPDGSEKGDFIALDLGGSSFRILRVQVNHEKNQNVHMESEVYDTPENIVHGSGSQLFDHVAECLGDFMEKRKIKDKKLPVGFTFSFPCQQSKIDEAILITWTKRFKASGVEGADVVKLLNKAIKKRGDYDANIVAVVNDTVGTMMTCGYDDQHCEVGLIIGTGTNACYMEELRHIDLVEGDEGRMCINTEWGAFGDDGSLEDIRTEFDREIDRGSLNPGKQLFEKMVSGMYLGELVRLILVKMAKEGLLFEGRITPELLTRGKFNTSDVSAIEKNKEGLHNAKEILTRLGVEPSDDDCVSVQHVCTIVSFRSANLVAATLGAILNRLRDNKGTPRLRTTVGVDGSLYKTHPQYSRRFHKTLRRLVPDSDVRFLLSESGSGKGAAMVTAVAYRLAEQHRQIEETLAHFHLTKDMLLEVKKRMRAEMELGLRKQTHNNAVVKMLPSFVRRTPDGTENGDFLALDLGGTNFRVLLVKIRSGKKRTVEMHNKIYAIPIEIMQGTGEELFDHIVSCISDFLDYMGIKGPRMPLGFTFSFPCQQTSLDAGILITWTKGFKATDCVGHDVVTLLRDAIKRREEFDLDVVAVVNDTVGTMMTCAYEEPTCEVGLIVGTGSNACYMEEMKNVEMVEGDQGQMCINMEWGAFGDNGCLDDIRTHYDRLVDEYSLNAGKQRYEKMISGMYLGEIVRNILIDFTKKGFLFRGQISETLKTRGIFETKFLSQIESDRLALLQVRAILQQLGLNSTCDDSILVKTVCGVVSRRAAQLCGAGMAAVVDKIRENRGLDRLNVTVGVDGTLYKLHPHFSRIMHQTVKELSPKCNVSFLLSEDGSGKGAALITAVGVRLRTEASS

Delta-type opioid receptor, sequence (P41143 whole entry): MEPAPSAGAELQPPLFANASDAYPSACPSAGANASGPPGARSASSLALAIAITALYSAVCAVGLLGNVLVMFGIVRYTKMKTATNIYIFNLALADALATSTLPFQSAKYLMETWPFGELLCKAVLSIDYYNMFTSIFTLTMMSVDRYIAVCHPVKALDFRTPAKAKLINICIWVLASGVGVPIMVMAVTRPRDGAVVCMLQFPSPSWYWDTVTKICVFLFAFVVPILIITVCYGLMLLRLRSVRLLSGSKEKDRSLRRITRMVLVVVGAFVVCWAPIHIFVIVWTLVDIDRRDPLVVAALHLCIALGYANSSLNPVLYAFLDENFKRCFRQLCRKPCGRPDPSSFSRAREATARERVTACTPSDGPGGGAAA
Mu-type opioid receptor, sequence (P35372 whole entry): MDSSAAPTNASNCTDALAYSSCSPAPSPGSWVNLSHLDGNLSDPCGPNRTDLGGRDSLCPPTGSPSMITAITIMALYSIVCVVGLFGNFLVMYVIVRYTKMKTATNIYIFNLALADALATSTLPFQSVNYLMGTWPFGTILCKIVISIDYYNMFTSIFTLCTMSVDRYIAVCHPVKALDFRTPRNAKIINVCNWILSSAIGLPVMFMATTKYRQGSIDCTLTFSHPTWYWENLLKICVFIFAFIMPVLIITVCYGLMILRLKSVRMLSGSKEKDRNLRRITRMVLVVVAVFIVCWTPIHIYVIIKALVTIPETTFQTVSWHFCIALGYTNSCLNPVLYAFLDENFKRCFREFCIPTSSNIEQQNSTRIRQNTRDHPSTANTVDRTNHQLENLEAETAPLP
5-hydroxytryptamine receptor 5A, sequence (P47898 whole entry): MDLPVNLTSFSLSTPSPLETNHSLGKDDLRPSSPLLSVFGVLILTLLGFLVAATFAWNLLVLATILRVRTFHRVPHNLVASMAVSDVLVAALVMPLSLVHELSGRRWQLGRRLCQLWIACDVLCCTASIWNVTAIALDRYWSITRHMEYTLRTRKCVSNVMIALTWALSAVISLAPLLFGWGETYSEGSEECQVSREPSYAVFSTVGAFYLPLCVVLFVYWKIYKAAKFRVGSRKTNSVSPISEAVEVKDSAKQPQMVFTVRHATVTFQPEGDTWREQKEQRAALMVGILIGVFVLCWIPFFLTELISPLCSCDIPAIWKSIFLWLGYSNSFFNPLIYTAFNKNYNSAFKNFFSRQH
Nucleotide-binding oligomerization domain-containing protein 2, sequence (Q9HC29 whole entry, the tested form may be a part): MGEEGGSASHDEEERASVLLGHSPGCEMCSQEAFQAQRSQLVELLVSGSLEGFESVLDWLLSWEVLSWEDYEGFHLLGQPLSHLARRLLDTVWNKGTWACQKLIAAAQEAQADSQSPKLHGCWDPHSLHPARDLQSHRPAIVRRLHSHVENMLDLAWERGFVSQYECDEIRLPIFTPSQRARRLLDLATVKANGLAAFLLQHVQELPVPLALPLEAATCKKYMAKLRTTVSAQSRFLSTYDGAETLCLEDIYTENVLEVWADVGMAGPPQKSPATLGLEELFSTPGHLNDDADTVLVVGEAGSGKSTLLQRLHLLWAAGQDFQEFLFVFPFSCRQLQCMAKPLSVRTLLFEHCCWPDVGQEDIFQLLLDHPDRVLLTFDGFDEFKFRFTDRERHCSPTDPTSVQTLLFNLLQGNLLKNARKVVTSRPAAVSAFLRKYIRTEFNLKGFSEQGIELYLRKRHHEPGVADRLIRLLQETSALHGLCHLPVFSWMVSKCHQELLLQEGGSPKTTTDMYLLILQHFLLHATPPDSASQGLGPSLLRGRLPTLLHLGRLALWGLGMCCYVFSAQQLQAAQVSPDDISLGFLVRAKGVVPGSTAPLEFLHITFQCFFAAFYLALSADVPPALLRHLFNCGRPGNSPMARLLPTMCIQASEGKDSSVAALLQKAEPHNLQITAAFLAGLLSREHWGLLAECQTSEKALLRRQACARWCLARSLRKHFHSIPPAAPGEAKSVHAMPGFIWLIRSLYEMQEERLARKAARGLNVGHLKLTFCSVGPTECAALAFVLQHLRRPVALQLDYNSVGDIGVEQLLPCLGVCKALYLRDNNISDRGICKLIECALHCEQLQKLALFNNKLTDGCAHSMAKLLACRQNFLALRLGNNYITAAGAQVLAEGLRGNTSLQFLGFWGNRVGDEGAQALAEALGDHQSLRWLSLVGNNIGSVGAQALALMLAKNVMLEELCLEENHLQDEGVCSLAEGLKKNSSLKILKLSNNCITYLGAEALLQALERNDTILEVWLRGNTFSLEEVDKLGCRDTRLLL
Dual specificity protein kinase CLK1, sequence (P49759 whole entry, the tested form may be a part): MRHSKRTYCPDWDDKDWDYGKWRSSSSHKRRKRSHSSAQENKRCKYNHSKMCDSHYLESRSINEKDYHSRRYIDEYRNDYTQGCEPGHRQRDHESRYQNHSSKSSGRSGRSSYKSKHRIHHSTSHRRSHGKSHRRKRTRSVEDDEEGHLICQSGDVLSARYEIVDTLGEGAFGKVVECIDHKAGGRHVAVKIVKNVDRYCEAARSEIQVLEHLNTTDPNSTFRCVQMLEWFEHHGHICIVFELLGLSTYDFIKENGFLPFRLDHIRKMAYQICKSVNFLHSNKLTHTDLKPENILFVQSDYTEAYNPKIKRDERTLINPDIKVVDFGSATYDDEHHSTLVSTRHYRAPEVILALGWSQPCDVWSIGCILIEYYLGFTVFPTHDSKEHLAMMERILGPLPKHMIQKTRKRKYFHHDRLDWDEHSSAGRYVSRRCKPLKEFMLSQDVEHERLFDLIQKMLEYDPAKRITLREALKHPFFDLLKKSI

Structure (SMILES) | EC50 [1] | EC50 [2] | EC50 (Mu-type opioid receptor) | EC50 [3] | IC50 (Hexokinase HKDC1) | IC50 (Hexokinase-1) | further results
O=C(OC1C2CCC1C1CN(CCc3ccccc3)CC12)c1ccccc1 (centres undefined) | > 92.5 µM (inactive) | > 92.5 µM (inactive) | > 92.5 µM (inactive) | 3.35 µM (active) | – | – | –
Cc1nc(N2CCN(c3ccccn3)CC2)c2c(C)c(C(=O)N3CCN(c4ccc(F)cc4)CC3)sc2n1 | > 92.4 µM (inactive) | > 92.4 µM (inactive) | 10.8 µM (inactive) | 1.19 µM (active) | – | – | EC50 (HEK293 [4]): 6.14 µM (active); IC50 (HEK293 [5]): 6.95 µM (active); IC50 (HEK293 [6]): 17.1 µM (active); IC50 (HEK293 [7]): 6.02 µM (active); IC50 (HEK293 [8]): > 20 µM (inactive); EC50 [9]: 5.26 µM (active)
c1nc(NCC2CCCOC2)c2cc(-c3ccc4c(c3)OCO4)ccc2n1 (centres undefined) | – | – | – | – | – | – | AC50 [10]: 0.0101 µM (active)
O=c1c2ccccc2nc(/C=C/c2cccnc2)n1Cc1ccccc1Cl | – | – | – | – | > 80 µM (inactive) | > 80 µM (inactive) | –
O=c1c2ccccc2nc(/C=C/c2cccc(Cl)c2)n1Cc1ccccc1 | – | – | – | – | > 80 µM (inactive) | > 80 µM (inactive) | –
